Drawing on ChEMBL document CHEMBL4229400, “Covalent inhibitors of nicotinamide N-methyltransferase (NNMT) provide evidence for target engagement challenges in situ” (Bioorg Med Chem Lett, 2018), this text covers Activity, IC50 and inhibition for 2 compounds.

Structures are written as SMILES. pIC50: −log10 of the molar value. Active and inactive are the calls of the source. The calls are words filed in the database; no cut-off is given here.

One test deals with T1, Zyxin (Homo sapiens) (UniProt Q15942).
T1 sequence (whole entry): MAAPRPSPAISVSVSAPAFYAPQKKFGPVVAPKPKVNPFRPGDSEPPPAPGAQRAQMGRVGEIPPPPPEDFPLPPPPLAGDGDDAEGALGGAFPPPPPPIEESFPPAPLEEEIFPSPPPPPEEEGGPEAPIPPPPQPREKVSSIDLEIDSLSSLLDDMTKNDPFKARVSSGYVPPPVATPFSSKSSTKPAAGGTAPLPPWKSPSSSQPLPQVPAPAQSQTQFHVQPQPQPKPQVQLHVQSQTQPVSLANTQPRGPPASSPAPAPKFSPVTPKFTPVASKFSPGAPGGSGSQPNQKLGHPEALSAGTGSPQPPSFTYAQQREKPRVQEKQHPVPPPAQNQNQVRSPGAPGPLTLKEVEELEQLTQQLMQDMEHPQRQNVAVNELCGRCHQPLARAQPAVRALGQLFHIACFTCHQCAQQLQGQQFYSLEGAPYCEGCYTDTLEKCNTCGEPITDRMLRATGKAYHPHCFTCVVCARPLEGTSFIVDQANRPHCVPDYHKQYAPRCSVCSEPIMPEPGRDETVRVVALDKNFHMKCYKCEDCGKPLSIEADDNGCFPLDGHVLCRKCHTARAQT
Description: Binding affinity to ZYX cysteine residue in human 786-O cell soluble proteomic lysate at 5 uM incubated for 1 hr followed by cell lysis by IA-alkyne probe based isoTOP-ABPP analysis.

Test [1] has as its target T2, Mitochondrial-processing peptidase subunit alpha (Homo sapiens) (UniProt Q10713).
T2 sequence (whole entry): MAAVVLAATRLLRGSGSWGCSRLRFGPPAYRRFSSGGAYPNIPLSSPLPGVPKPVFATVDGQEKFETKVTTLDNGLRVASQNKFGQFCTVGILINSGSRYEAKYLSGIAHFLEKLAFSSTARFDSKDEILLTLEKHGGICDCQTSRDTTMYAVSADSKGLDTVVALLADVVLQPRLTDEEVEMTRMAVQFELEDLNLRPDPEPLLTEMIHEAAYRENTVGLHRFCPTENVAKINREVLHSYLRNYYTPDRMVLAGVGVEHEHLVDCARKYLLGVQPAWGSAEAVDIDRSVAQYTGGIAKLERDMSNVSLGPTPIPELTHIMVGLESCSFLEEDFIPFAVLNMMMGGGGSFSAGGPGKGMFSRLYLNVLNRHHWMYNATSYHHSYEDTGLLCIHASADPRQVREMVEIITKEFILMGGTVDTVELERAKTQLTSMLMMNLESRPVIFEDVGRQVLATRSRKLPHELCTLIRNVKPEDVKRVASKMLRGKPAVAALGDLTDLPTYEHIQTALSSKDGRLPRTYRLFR
Description: Binding affinity to PMPCA cysteine residue in human 786-O cell soluble proteomic lysate at 5 uM incubated for 1 hr followed by cell lysis by IA-alkyne probe based isoTOP-ABPP analysis.

Test [2] addresses T3, 5'-nucleotidase domain-containing protein 2 (Homo sapiens) (UniProt Q9H857).
T3 sequence (whole entry): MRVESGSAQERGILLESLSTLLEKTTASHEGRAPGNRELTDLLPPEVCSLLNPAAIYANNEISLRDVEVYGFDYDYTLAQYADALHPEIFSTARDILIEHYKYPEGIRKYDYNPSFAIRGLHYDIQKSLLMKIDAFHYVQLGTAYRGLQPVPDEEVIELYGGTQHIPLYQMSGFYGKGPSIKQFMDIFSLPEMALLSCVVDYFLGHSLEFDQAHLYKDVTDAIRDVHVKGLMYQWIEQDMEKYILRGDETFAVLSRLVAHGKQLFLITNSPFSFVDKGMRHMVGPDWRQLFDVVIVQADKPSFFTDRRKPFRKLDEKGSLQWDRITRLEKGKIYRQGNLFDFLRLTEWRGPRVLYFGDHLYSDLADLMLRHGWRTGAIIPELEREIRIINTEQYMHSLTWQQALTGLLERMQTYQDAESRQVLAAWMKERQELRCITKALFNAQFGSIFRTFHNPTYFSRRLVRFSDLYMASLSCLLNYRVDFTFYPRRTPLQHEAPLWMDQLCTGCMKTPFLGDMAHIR
Description: Binding affinity to NT5DC2 cysteine residue in human 786-O cell soluble proteomic lysate at 5 uM incubated for 1 hr followed by cell lysis by IA-alkyne probe based isoTOP-ABPP analysis.

The target of test [3] is T4, Nicotinamide N-methyltransferase (Homo sapiens, UniProt P40261).
T4 sequence (P40261 whole entry): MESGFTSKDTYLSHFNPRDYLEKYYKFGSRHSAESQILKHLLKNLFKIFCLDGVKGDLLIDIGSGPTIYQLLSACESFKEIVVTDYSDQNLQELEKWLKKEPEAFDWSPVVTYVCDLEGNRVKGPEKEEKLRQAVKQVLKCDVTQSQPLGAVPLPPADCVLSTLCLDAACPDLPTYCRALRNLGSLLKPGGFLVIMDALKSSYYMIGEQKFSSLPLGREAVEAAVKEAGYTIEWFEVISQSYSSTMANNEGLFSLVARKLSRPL
In words: Inhibition of NNMT in human 786-O cell lysate using d4-nicotinamide as substrate pretreated for 1 hr at 3 mins post 160 uM SAM addition followed by substrate addition measured after 15 to 30 mins by LC-MS analysis.

In test [4] the target is T4, Nicotinamide N-methyltransferase. In words: Inhibition of NNMT in human 786-O cell lysate using d4-nicotinamide as substrate pretreated for 1 hr at 3 mins post 40 uM SAM addition followed by substrate addition measured after 15 to 30 mins by LC-MS analysis.
Test [5] has as its target T5, Glutathione S-transferase omega-1 (Homo sapiens) (UniProt P78417).
T5 sequence (whole entry): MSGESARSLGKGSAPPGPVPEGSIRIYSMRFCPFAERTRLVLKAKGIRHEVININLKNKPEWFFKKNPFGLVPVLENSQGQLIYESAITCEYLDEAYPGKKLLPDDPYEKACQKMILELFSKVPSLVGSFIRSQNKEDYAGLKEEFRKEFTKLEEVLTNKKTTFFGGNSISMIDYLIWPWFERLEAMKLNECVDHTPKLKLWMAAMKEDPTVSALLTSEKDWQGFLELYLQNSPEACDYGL
Description: Binding affinity to GSTO1 cysteine residue in human 786-O cell soluble proteomic lysate at 5 uM incubated for 1 hr followed by cell lysis by IA-alkyne probe based isoTOP-ABPP analysis.

In test [6] the target is T6, Nicotinamide N-methyltransferase (Homo sapiens) (UniProt P40261).
T6 sequence (whole entry): T4 sequence (P40261 whole entry)
In words: Inhibition of NNMT in human 786-O cell lysate using d4-nicotinamide as substrate preincubated for 1 hr followed by substrate and SAM addition measured after 15 to 30 mins by LC-MS analysis.

Turning to `O=C(Nc1cccnc1Cl)c1cc(N(CCCc2ccccc2)C(=O)CCl)cc(C(F)(F)F)c1`, the result (on Zyxin (Homo sapiens); in test [1]; in test [2]) was Active.
On to `CC(C)CCN(C(=O)CCl)c1cc(C(=O)NCc2cccc([N+](=O)[O-])c2)cc(C(F)(F)F)c1`, for which the figures for the pIC50 in test [3] and in test [4] were less than 4.00 and 5.00, respectively. Also, the outcome in test [5] was Active. The inhibition entry in test [6] was “Dose-dependent effect”.

In general, pIC50 refers to the negative decadic logarithm of the IC50, by convention in mol/L.
